The record followed here is ChEMBL document CHEMBL2203286, “Synthesis and structure-activity relationship studies of cytotoxic vinorelbine amide analogues” (Bioorg Med Chem Lett, 2012).

Series [1] relates to A549. Briefly: Cytotoxicity against human A549 cells after 24 to 72 hrs by MTT assay. It is filed as functional, cell-based.
Series [2] deals with Mus musculus. Briefly: Toxicity in BALB/cA nude mouse xenografted with human A549 cells assessed as change in body weight at 9 mg/kg, iv once every seven days for three doses (reference value: 27.61 g). The settings on record: in vivo.
The subject of series [3] is A549. Description: Antitumor activity against human A549 cells xenografted in BALB/cA nude mouse assessed as growth inhibition at 9 mg/kg, iv once every seven days for three doses relative to control. The settings on record: read-out: GI.
The test system of series [4] is Mus musculus. Briefly: Toxicity in BALB/cA nude mouse xenografted with human A549 cells assessed as mortality at 9 mg/kg, iv […]. Type of series: organism-based. Set-up: dose 9 mg/kg, route intravenous. Particulars: in vivo.
The subject of series [5] is A549. Description: Ratio of navelbine IC50 to compound IC50 for human A549 cells. Type of series: functional.

`CCCCC(=O)NC[C@@]1(O)[C@H](OC(C)=O)[C@]2(CC)C=CCN3CC[C@@]4(c5cc([C@@]6(C(=O)OC)C[C@@H]7C=C(CC)CN(Cc8c6[nH]c6ccccc86)C7)c(OC)cc5N(C)[C@@H]14)[C@@H]32` returned an IC50 in the series on A549 [1] of 22.1 nM.

In the series with A549 [1], `CCC1=C[C@@H]2CN(C1)Cc1c([nH]c3ccccc13)[C@@](C(=O)OC)(c1cc3c(cc1OC)N(C)[C@H]1[C@@](O)(CNC(=O)C(C)C)[C@H](OC(C)=O)[C@]4(CC)C=CCN5CC[C@]31[C@@H]54)C2` registered an IC50 of 11.4 nM. This IC50 is about 1.9-fold lower than that of the molecule before.

`CCC1=C[C@@H]2CN(C1)Cc1c([nH]c3ccccc13)[C@@](C(=O)OC)(c1cc3c(cc1OC)N(C)[C@H]1[C@@](O)(CNC(=O)CC(C)C)[C@H](OC(C)=O)[C@]4(CC)C=CCN5CC[C@]31[C@@H]54)C2` displayed an IC50 in the series on A549 [1] of 22 nM.

On to `CCC1=C[C@@H]2CN(C1)Cc1c([nH]c3ccccc13)[C@@](C(=O)OC)(c1cc3c(cc1OC)N(C)[C@H]1[C@@](O)(CNC(=O)C(C)(C)C)[C@H](OC(C)=O)[C@]4(CC)C=CCN5CC[C@]31[C@@H]54)C2`, for which half-maximal inhibition in the series on A549 [1] (IC50) was put at 37 nM.

In the case of `CCC1=C[C@@H]2CN(C1)Cc1c([nH]c3ccccc13)[C@@](C(=O)OC)(c1cc3c(cc1OC)N(C)[C@H]1[C@@](O)(CNC(=O)C4CC4)[C@H](OC(C)=O)[C@]4(CC)C=CCN5CC[C@]31[C@@H]54)C2.O=C(O)C(O)C(O)C(=O)O`, the values for the Activity with Mus musculus [2] and in the series with Mus musculus [4] were 26.53 g and “Non-toxic”, respectively. The molecule further showed an IC50 with A549 [1] of 3 nM. Moreover, the inhibition in vivo at 9 mg/kg in the series on A549 [3] came out at 18%. In the series with A549 [5], the “Ratio IC50” value stood at 3.

`CCC(=O)NC[C@@]1(O)[C@H](OC(=O)CC)[C@]2(CC)C=CCN3CC[C@@]4(c5cc([C@@]6(C(=O)OC)C[C@@H]7C=C(CC)CN(Cc8c6[nH]c6ccccc86)C7)c(OC)cc5N(C)[C@@H]14)[C@@H]32`: half-maximal inhibition in the series on A549 [1] (IC50) was put at 12 nM.

`CCC1=C[C@@H]2CN(C1)Cc1c([nH]c3ccccc13)[C@@](C(=O)OC)(c1cc3c(cc1OC)N(C)[C@H]1[C@@](O)(CNC(=O)Cc4ccccc4)[C@H](OC(C)=O)[C@]4(CC)C=CCN5CC[C@]31[C@@H]54)C2` had an IC50 with A549 [1] of 16.2 nM.

For the molecule `CCC1=C[C@@H]2CN(C1)Cc1c([nH]c3ccccc13)[C@@](C(=O)OC)(c1cc3c(cc1OC)N(C)[C@H]1[C@@](O)(CNC(=O)c4ccccc4)[C@H](OC(C)=O)[C@]4(CC)C=CCN5CC[C@]31[C@@H]54)C2.O=C(O)C(O)C(O)C(=O)O`, the Activity with Mus musculus [2] is recorded as 24.6 g; in the series on Mus musculus [4], “Non-toxic”. The molecule also showed an IC50 in the series on A549 [1] of 5 nM. Further, the inhibition in vivo at 9 mg/kg with A549 [3] was determined as 43.5%.

Molecule `CCC1=C[C@@H]2CN(C1)Cc1c([nH]c3ccccc13)[C@@](C(=O)OC)(c1cc3c(cc1OC)N(C)[C@H]1[C@@](O)(CNC(=O)c4ccc(C)cc4)[C@H](OC(C)=O)[C@]4(CC)C=CCN5CC[C@]31[C@@H]54)C2` yielded a concentration for half-maximal inhibition (IC50) in the series on A549 [1] of 15.3 nM.

In the series with A549 [1], `CCC1=C[C@@H]2CN(C1)Cc1c([nH]c3ccccc13)[C@@](C(=O)OC)(c1cc3c(cc1OC)N(C)[C@H]1[C@@](O)(CNC(=O)c4cccc(C)c4)[C@H](OC(C)=O)[C@]4(CC)C=CCN5CC[C@]31[C@@H]54)C2` displayed an IC50 of 17.2 nM. The IC50 values of the last two molecules are within 1.5-fold of each other.

Turning to `CCC1=C[C@@H]2CN(C1)Cc1c([nH]c3ccccc13)[C@@](C(=O)OC)(c1cc3c(cc1OC)N(C)[C@H]1[C@@](O)(CNC(=O)c4ccc(F)cc4)[C@H](OC(C)=O)[C@]4(CC)C=CCN5CC[C@]31[C@@H]54)C2`, the IC50 in the series on A549 [1] was 6.6 nM.

For `CCC1=C[C@@H]2CN(C1)Cc1c([nH]c3ccccc13)[C@@](C(=O)OC)(c1cc3c(cc1OC)N(C)[C@H]1[C@@](O)(CNC(=O)c4ccccc4F)[C@H](OC(C)=O)[C@]4(CC)C=CCN5CC[C@]31[C@@H]54)C2`, the midpoint of inhibition with A549 [1], the IC50, lay at 7.3 nM.

The molecule `CCC1=C[C@@H]2CN(C1)Cc1c([nH]c3ccccc13)[C@@](C(=O)OC)(c1cc3c(cc1OC)N(C)[C@H]1[C@@](O)(CNC(=O)c4c(F)cccc4F)[C@H](OC(C)=O)[C@]4(CC)C=CCN5CC[C@]31[C@@H]54)C2` displayed an IC50 with A549 [1] of 7.9 nM.

On to `CCC1=C[C@@H]2CN(C1)Cc1c([nH]c3ccccc13)[C@@](C(=O)OC)(c1cc3c(cc1OC)N(C)[C@H]1[C@@](O)(CNC(=O)c4cccc(OC)c4)[C@H](OC(C)=O)[C@]4(CC)C=CCN5CC[C@]31[C@@H]54)C2`, for which, in the series with A549 [1], half-maximal inhibition (IC50) required 6.3 nM.

The molecule `CCC1=C[C@@H]2CN(C1)Cc1c([nH]c3ccccc13)[C@@](C(=O)OC)(c1cc3c(cc1OC)N(C)[C@H]1[C@@](O)(CNC(=O)c4ccc(OC)c(OC)c4)[C@H](OC(C)=O)[C@]4(CC)C=CCN5CC[C@]31[C@@H]54)C2` had an IC50 in the series with A549 [1] of 6.5 nM. The IC50 values of the last two molecules are within 1.5-fold of each other.

Consider `CCC1=C[C@@H]2CN(C1)Cc1c([nH]c3ccccc13)[C@@](C(=O)OC)(c1cc3c(cc1OC)N(C)[C@H]1[C@@](O)(CNC(=O)c4ccc(Cl)cc4)[C@H](OC(C)=O)[C@]4(CC)C=CCN5CC[C@]31[C@@H]54)C2`, for which 25.6 nM corresponded to half-maximal inhibition in the series on A549 [1] (IC50).

Consider `CCC1=C[C@@H]2CN(C1)Cc1c([nH]c3ccccc13)[C@@](C(=O)OC)(c1cc3c(cc1OC)N(C)[C@H]1[C@@](O)(CNC(=O)c4ccc(C(F)(F)F)cc4)[C@H](OC(C)=O)[C@]4(CC)C=CCN5CC[C@]31[C@@H]54)C2`, for which the IC50 in the series with A549 [1] is 20.7 nM.

In turn, `CCC1=C[C@@H]2CN(C1)Cc1c([nH]c3ccccc13)[C@@](C(=O)OC)(c1cc3c(cc1OC)N(C)[C@H]1[C@@](O)(CNC(=O)c4ccc([N+](=O)[O-])cc4)[C@H](OC(C)=O)[C@]4(CC)C=CCN5CC[C@]31[C@@H]54)C2` returned an IC50 in the series with A549 [1] of 41.1 nM. This IC50 lies about 2-fold higher than the previous one.

On to `CCC1=C[C@@H]2CN(C1)Cc1c([nH]c3ccccc13)[C@@](C(=O)OC)(c1cc3c(cc1OC)N(C)[C@H]1[C@@](O)(CNC(=O)c4ccco4)[C@H](OC(C)=O)[C@]4(CC)C=CCN5CC[C@]31[C@@H]54)C2.O=C(O)C(O)C(O)C(=O)O`, for which the Activity in the series on Mus musculus [2] stood at 25.45 g. Besides, the midpoint of inhibition in the series with A549 [1], the IC50, lay at 3.2 nM. Also, the inhibition in vivo at 9 mg/kg with A549 [3] amounted to 58%.

In the series on A549 [1], `CCC1=C[C@@H]2CN(C1)Cc1c([nH]c3ccccc13)[C@@](C(=O)OC)(c1cc3c(cc1OC)N(C)[C@H]1[C@@](O)(CNC(=O)c4ccncc4)[C@H](OC(C)=O)[C@]4(CC)C=CCN5CC[C@]31[C@@H]54)C2` displayed an IC50 of 8.1 nM.

Take `CCC1=C[C@@H]2CN(C1)Cc1c([nH]c3ccccc13)[C@@](C(=O)OC)(c1cc3c(cc1OC)N(C)[C@H]1[C@@](O)(CNC(C)=O)[C@H](OC(C)=O)[C@]4(CC)C=CCN5CC[C@]31[C@@H]54)C2`: in the series with A549 [1], the IC50 stood at 24.5 nM.

`CCCC(=O)NC[C@@]1(O)[C@H](OC(C)=O)[C@]2(CC)C=CCN3CC[C@@]4(c5cc([C@@]6(C(=O)OC)C[C@@H]7C=C(CC)CN(Cc8c6[nH]c6ccccc86)C7)c(OC)cc5N(C)[C@@H]14)[C@@H]32` returned an IC50 in the series on A549 [1] of 17.3 nM.

As for `CCC(=O)NC[C@@]1(O)[C@H](OC(C)=O)[C@]2(CC)C=CCN3CC[C@@]4(c5cc([C@@]6(C(=O)OC)C[C@@H]7C=C(CC)CN(Cc8c6[nH]c6ccccc86)C7)c(OC)cc5N(C)[C@@H]14)[C@@H]32`, the IC50 in the series on A549 [1] worked out at 15.6 nM.

With `CCC1=C[C@@H]2CN(C1)Cc1c([nH]c3ccccc13)[C@@](C(=O)OC)(c1cc3c(cc1OC)N(C)[C@H]1[C@@](O)(C(=O)OC)[C@H](OC(C)=O)[C@]4(CC)C=CCN5CC[C@]31[C@@H]54)C2` [VINORELBINE], the Activity with Mus musculus [2] is listed as 26.22 g; in the series on Mus musculus [4], “Non-toxic”. The molecule also yielded an IC50 in the series on A549 [1] of 9 nM. Also, the inhibition in vivo at 9 mg/kg in the series on A549 [3] came to 55.9%.
